This is an account of results in US5041653A, “Substituted benzamide radiosensitizers” (SRI International, priority 1990, dated 1991).

One data set has as its system EMT6 tumors. The experiment in a line: In vivo assay for radiosensitization activity (EMT6 tumors in female BALB/c mice, survival of dissected and cultured tumor cells, compared with MIS). The arrangement: key to Radiosensitization (score 0 to 4 vs MIS): 0: No radiosensitization; 1: Minimal radiosensitization (some radiosensitization relative to controls but lowest survival>3×lowest survival with MIS); 2: Moderate radiosensitization (not good as MIS, but lowest surviving fraction<3×lowest surviving fraction with MIS); 3: Good radiosensitization (equal to MIS); 4: Excellent radiosensitization (superior to MIS). As to conditions: for Radiosensitization (score 0 to 4 vs MIS): EMT6 tumors, BALB/c mice, 5 mmole/kg or 2/3 of LD50 ip, 2,000 rad at 5 min to 2 hr after injection; for sensitizer enhancement ratio: at a 1-2 mM concentration, comparable to that for MIS. As for the experimental part: The compounds of the invention are tested in vivo for radiosensitization activity by the assay of Brown, J. M., Radiation Res (1975) 64:633-47, incorporated herein by reference. For this assay EMT6 tumors in female BALB/c mice weighing 20-25 g are used. These mice are bred under specific pathogen-free conditions and are 3-4 months old at the beginning of each experiment. The EMT6 tumor is grown intradermally in the flank from an inoculation of 2×10^5 tumor cells taken from the 2nd-8th in vitro passage of the tumor cells since removal from the previous in vivo tumor. Two tumors per mouse are implanted, and are used as subject tumors when they reach a volume of approximately […]. At this point the tumors contain approximately 20% hypoxic cells.
Test compounds are compared against MIS in this assay. The test compound is tested at a fixed injected dose of either 5 mmole/kg or 2/3 of the LD50 (whichever is lower), MIS is injected into controls at the same dose. Additional suitable controls of test compound-injected but non-irradiated and saline-injected and irradiated mice are also included. A fixed radiation dose of 2,000 rad is applied at variable intervals of 5 min to 2 hr between injection and irradiation. Typically, irradiation is applied at 5, 10, 15, 20, 30, 45, 60, 90, and 120 min following intraperitoneal administration of both drugs. By using these intervals, the results give an indication of both the optimum time to irradiate and of how the test compound sensitizes in relationship to MIS.
Irradiation of the EMT6 tumors is done by irradiating nonanesthetized tumor-bearing mice in a Plexiglas box. Irradiation conditions are 250 kVp X-rays, 15 mA, FSC 33 cm, added filtration of 0.35 mm Cu, half value layer 1.3 mm Cu, and a dose rate of 317 rad/min.
Radiosensitization activity is judged by survival rate of dissected and cultured tumor cells as follows: The tumor-bearing mice are killed immediately after irradiation, and tumors dissected from the skin, cut into several pieces, and made into a fine brei by high-speed chopping with a razor blade attached to a jigsaw. The brei is added to 30 ml of Hank's buffered salt solution (HBSS) containing 0.02% DNase, 0.05% promase, and 0.02% collagenase. The suspension is stirred for 30 min at 37° C., filtered, and centrifuged at 1,600 rmp for 10 min at 4° C. The cell pellet is resuspended in complete Waymouth's medium plus 121/2% horse serum plus 2-12% fetal calf serum (FCS) and an aliquot mixed with trypan blue and counted with the use of a hemacytometer. Suitable dilutions of this […] plated into 60- or 100-mm polystyrene petri dishes (Lux Scientific Corp) in 5 or 15 ml of medium. After incubation for 13 days, the colonies are fixed and stained, and those containing 50 cells or more are counted. The dilution yielding an average count of 25-100 colonies in a 60 mm dish is used in calculation of results.
The test compound is scored on the scale of 0 to 4 based on how it compares with MIS. The scoring system is:
1: Minimal radiosensitization (some radiosensitization relative to controls but lowest survival>3×lowest survival with MIS)
2: Moderate radiosensitization (not good as MIS, but lowest surviving fraction<3×lowest surviving fraction with MIS)
3: Good radiosensitization (equal to MIS)

A short description of data set [1]: Cytotoxicity test (% cell survival, hypoxic HA-1 cells). Format: cell-based, Chinese hamster. The note with it: chinese hamster, ha-1 cells, hypoxic, 10 mM test compound, 1 hr at 22° C., hypoxia (N2 containing 5% CO2). The procedure:
(§1) Cytotoxicity tests were also carried out on each of the compounds. The test procedure was as follows: Log-phase Chinese hamster ovary HA-1 cells were trypsinized (0.5% trypsin in Hank's buffered salt solution (HBSS)) and plated in 60 mm Permanox petri dishes in concentrations necessary to yield approximately 30 colonies after experimental treatment. The cells were allowed to attach overnight. Then the medium was removed from each dish and replaced with 2 ml of medium containing varying concentrations of the test compound. The petri dishes were then placed in nylon chamber fitted with gassing ports and, to achieve hypx=oxia, were gassed at room temperature with humidified N2 containing 5% CO2 for 1 hr at a rate of 1 l/min. The cells are then exposed to 10 mM of the test compound for 1 hr at 22° C. The % cell survival is read after such treatment.

For data set [2], the system named is Chinese hamster ovary HA-1 cells. Described as above. Format: cell-based. The note with it: 10 mM test compound, 1 hr at 22° C., hypoxia (N2 containing 5% CO2), 60 min, 10000 µM. As for the experimental part: as §1

Broadly, the viability is a read-out of living cells in per cent, often relative to untreated cells. In the case of `NC(=O)c1cccc(O)c1` [3-hydroxybenzamide], in the data set on EMT6 tumors, the “Radiosensitization (score 0 to 4 vs MIS)” value is 3 and the sensitizer enhancement ratio is given as 1.6. The viability at 1 h, 10000 µM in data set [1] was 90%. Further, the “Cytotoxicity % Cell Survival” value in data set [2] is listed as 77%.

As for `CC(=O)OCCOc1cccc(C(N)=O)c1` [3-(2-acetoylethoxy)benzamide, 3-(2-Acetoxyethoxy)benzamide], in the data set with EMT6 tumors, the sensitizer enhancement ratio stood at 1.6.

`NC(=O)c1cccc(OCCO)c1` [3-(2-hydroxyethoxy)benzamide]: in the data set on EMT6 tumors, the “Radiosensitization (score 0 to 4 vs MIS)” value stood at 3 and the sensitizer enhancement ratio was found to be 1.6. This compound yielded a viability at 1 h, 10000 µM in data set [1] of 89%.
